Measured values taken from ChEMBL document CHEMBL1201862, “PubChem BioAssay data set” (2004).
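Cultured in 96-well plates, cells were exposed to test compound for 48 hours across five concentrations. At the GI50, growth is halved.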 Activity calls are given as the source filed them. Cut-off read from the data, not from the text of the source: active = GI50 up to about 1.1 µM and inactive = higher.

Legend:
Assay in all cases: inhibition of tumour cell growth, NCI panel, 48 h
HL-60 = tested on: HL-60
HCT-15 = tested on: HCT-15
TK-10 = tested on: TK-10
M14 = tested on: M14
HOP-62 = tested on: HOP-62
UACC-62 = tested on: UACC-62
SF-295 = tested on: SF-295
K562 = tested on: K562
UO-31 = tested on: UO-31
NCI-H460 = tested on: NCI-H460
KM12 = tested on: KM12
ACHN = tested on: ACHN
A549 = tested on: A549
NCI-H522 = tested on: NCI-H522
HT-29 = tested on: HT-29
SN12C = tested on: SN12C
SK-MEL-28 = tested on: SK-MEL-28
UACC-257 = tested on: UACC-257
SK-MEL-5 = tested on: SK-MEL-5
OVCAR-3 = tested on: OVCAR-3

| Structure (SMILES) | GI50 (HL-60) | GI50 (HCT-15) | GI50 (TK-10) | GI50 (M14) | GI50 (HOP-62) | GI50 (UACC-62) | GI50 (SF-295) | GI50 (K562) | GI50 (UO-31) | GI50 (NCI-H460) | GI50 (KM12) | GI50 (ACHN) | GI50 (A549) | GI50 (NCI-H522) | GI50 (HT-29) | GI50 (SN12C) | GI50 (SK-MEL-28) | GI50 (UACC-257) | GI50 (SK-MEL-5) | GI50 (OVCAR-3) |
| --- | --- | --- | --- | --- | --- | --- | --- | --- | --- | --- | --- | --- | --- | --- | --- | --- | --- | --- | --- | --- |
| O=C(Nc1ccc(F)cc1)C(=O)C(C(=O)c1ccccc1F)C1OC(=O)c2ccccc21 (stereo unspecified) | 29.8 µM (inactive) | 23.6 µM | > 100 µM (inactive) | > 100 µM (inactive) | > 100 µM (inactive) | 39.9 µM (inactive) | 68.5 µM (inactive) | 34.7 µM (inactive) | 52.6 µM (inactive) | 47 µM (inactive) | 79.4 µM (inactive) | > 100 µM (inactive) | > 100 µM (inactive) | 15 µM (inactive) | 52.6 µM (inactive) | 51.2 µM (inactive) | 87.3 µM (inactive) | > 100 µM (inactive) | > 100 µM (inactive) | – |
| CCOCc1cc(=O)c2c(O)cc3c(c2o1)CCC(C)(C)O3 | > 100 µM (inactive) | > 100 µM | > 100 µM (inactive) | > 100 µM (inactive) | – | > 100 µM (inactive) | > 100 µM (inactive) | > 100 µM (inactive) | > 100 µM (inactive) | > 100 µM (inactive) | – | > 100 µM (inactive) | – | > 100 µM (inactive) | > 100 µM (inactive) | > 100 µM (inactive) | > 100 µM (inactive) | – | > 100 µM (inactive) | > 100 µM (inactive) |
| O=[S@@]1Nc2ccc(Br)cc2S1 | 2.22 µM (inactive) | – | 2.79 µM (inactive) | 1.4 µM (inactive) | – | 1.07 µM (active) | 40 µM (inactive) | 0.766 µM (active) | 1.05 µM (active) | – | 2.48 µM (inactive) | 1.07 µM (active) | 4.56 µM (inactive) | 0.887 µM (active) | 2.13 µM (inactive) | 37.7 µM (inactive) | 4.53 µM (inactive) | > 100 µM (inactive) | 12.6 µM (inactive) | 31.2 µM (inactive) |
| CCOC(=O)C(Cc1c(-c2[nH]c3ccccc3c2CC(NC(=O)CNC(C)=O)C(=O)OCC)[nH]c2ccccc12)NC(=O)CNC(C)=O (stereo unspecified) | – | > 100 µM | > 100 µM (inactive) | 71.6 µM (inactive) | > 100 µM (inactive) | 74.3 µM (inactive) | > 100 µM (inactive) | – | 77.4 µM (inactive) | > 100 µM (inactive) | > 100 µM (inactive) | – | > 100 µM (inactive) | 27.9 µM (inactive) | > 100 µM (inactive) | 56 µM (inactive) | 45.4 µM (inactive) | 27.4 µM (inactive) | 29.9 µM (inactive) | 42.3 µM (inactive) |
| Clc1ccc(N/N=C(\c2ccccc2)c2ccccn2)nc1 | < 0.01 µM (active) | < 0.0183 µM | – | < 0.01 µM (active) | 1.12 µM (active) | 0.214 µM (active) | 0.323 µM (active) | – | 0.0494 µM (active) | – | 0.348 µM (active) | < 0.01 µM (active) | 0.387 µM (active) | < 0.01 µM (active) | < 0.01 µM (active) | < 0.01 µM (active) | 2.67 µM (inactive) | < 0.0158 µM (active) | 0.0578 µM (active) | < 0.0121 µM (active) |
| CC(=O)N(C(=O)CC(=O)N1N=C(C)C(/N=N/c2cccc([N+](=O)[O-])c2)C1=O)c1ccc(Cl)cc1 (stereo unspecified) | > 10 µM (inactive) | > 10 µM | > 10 µM (inactive) | > 10 µM (inactive) | > 10 µM (inactive) | > 10 µM (inactive) | > 10 µM (inactive) | > 10 µM (inactive) | – | – | > 10 µM (inactive) | > 10 µM (inactive) | > 10 µM (inactive) | > 10 µM (inactive) | > 10 µM (inactive) | > 10 µM (inactive) | > 10 µM (inactive) | > 10 µM (inactive) | > 10 µM (inactive) | > 10 µM (inactive) |
| Cc1cc(C)c(C2=NO[C@@H]3[C@H]2C(=O)C=C2N(Cc4ccccc4)CCO[C@@]23O)c(C)c1 | > 100 µM (inactive) | > 100 µM | – | – | > 100 µM (inactive) | > 100 µM (inactive) | > 100 µM (inactive) | > 100 µM (inactive) | > 100 µM (inactive) | > 100 µM (inactive) | > 100 µM (inactive) | – | > 100 µM (inactive) | > 100 µM (inactive) | > 100 µM (inactive) | > 100 µM (inactive) | > 100 µM (inactive) | > 100 µM (inactive) | > 100 µM (inactive) | > 100 µM (inactive) |
| CCOC(=O)c1nc2ccc(OC)cc2c2c1Cc1ccccc1-2 | – | > 100 µM | > 100 µM (inactive) | > 100 µM (inactive) | > 100 µM (inactive) | 90.2 µM (inactive) | > 100 µM (inactive) | > 100 µM (inactive) | > 100 µM (inactive) | > 100 µM (inactive) | > 100 µM (inactive) | > 100 µM (inactive) | > 100 µM (inactive) | 56.5 µM (inactive) | > 100 µM (inactive) | > 100 µM (inactive) | > 100 µM (inactive) | > 100 µM (inactive) | 42.8 µM (inactive) | > 100 µM (inactive) |
| CC1CC=CC(O)C1 (stereo unspecified) | > 100 µM (inactive) | > 100 µM | – | – | > 100 µM (inactive) | > 100 µM (inactive) | > 100 µM (inactive) | > 100 µM (inactive) | > 100 µM (inactive) | > 100 µM (inactive) | > 100 µM (inactive) | – | > 100 µM (inactive) | > 100 µM (inactive) | > 100 µM (inactive) | > 100 µM (inactive) | > 100 µM (inactive) | > 100 µM (inactive) | > 100 µM (inactive) | > 100 µM (inactive) |
| C[C@H](C(=O)O)C(=O)NC(=O)N(Cc1ccccc1)N=O | – | > 100 µM | > 100 µM (inactive) | > 100 µM (inactive) | > 100 µM (inactive) | > 100 µM (inactive) | > 100 µM (inactive) | 88.3 µM (inactive) | > 100 µM (inactive) | > 100 µM (inactive) | > 100 µM (inactive) | > 100 µM (inactive) | > 100 µM (inactive) | – | > 100 µM (inactive) | > 100 µM (inactive) | > 100 µM (inactive) | > 100 µM (inactive) | > 100 µM (inactive) | > 100 µM (inactive) |
| COC(=O)/C=C\n1nc(Br)c(=O)[nH]c1=O | 66.4 µM (inactive) | 85.7 µM | > 100 µM (inactive) | > 100 µM (inactive) | > 100 µM (inactive) | – | – | > 100 µM (inactive) | > 100 µM (inactive) | > 100 µM (inactive) | > 100 µM (inactive) | > 100 µM (inactive) | > 100 µM (inactive) | 35.1 µM (inactive) | > 100 µM (inactive) | > 100 µM (inactive) | > 100 µM (inactive) | > 100 µM (inactive) | > 100 µM (inactive) | > 100 µM (inactive) |
| O=S(O)c1cc(Cl)cc(Cl)c1O | > 100 µM (inactive) | – | > 100 µM (inactive) | > 100 µM (inactive) | > 100 µM (inactive) | > 100 µM (inactive) | – | > 100 µM (inactive) | > 100 µM (inactive) | > 100 µM (inactive) | > 100 µM (inactive) | > 100 µM (inactive) | – | > 100 µM (inactive) | > 100 µM (inactive) | > 100 µM (inactive) | > 100 µM (inactive) | > 100 µM (inactive) | – | > 100 µM (inactive) |
| CN(C)CCNC(=O)c1ccc(Cl)c2ccc(-c3ccccc3)nc12 | 2.58 µM (inactive) | 3.42 µM | – | – | 1.52 µM (inactive) | 2.69 µM (inactive) | 2.96 µM (inactive) | 2.27 µM (inactive) | 1.77 µM (inactive) | 2.07 µM (inactive) | 4.47 µM (inactive) | – | 2.92 µM (inactive) | 3.89 µM (inactive) | 2.77 µM (inactive) | 3.85 µM (inactive) | 4.27 µM (inactive) | 4.04 µM (inactive) | 1.95 µM (inactive) | 5.4 µM (inactive) |
| O=c1[nH]cnc2sc(=S)c3c(c12)CCC3 | 22.2 µM (inactive) | 29 µM | 25.2 µM (inactive) | 34.2 µM (inactive) | 52.2 µM (inactive) | 40.9 µM (inactive) | > 100 µM (inactive) | 12.2 µM (inactive) | 25.8 µM (inactive) | 44.1 µM (inactive) | 51.5 µM (inactive) | 17.3 µM (inactive) | 68.7 µM (inactive) | 15.9 µM (inactive) | 35.2 µM (inactive) | > 100 µM (inactive) | 40.1 µM (inactive) | 33.3 µM (inactive) | 17.8 µM (inactive) | 18.4 µM (inactive) |
| O=S(O)c1cc(Cl)cc(Cl)c1OCc1ccccc1 | > 100 µM (inactive) | – | > 100 µM (inactive) | > 100 µM (inactive) | > 100 µM (inactive) | > 100 µM (inactive) | – | > 100 µM (inactive) | > 100 µM (inactive) | > 100 µM (inactive) | > 100 µM (inactive) | > 100 µM (inactive) | – | > 100 µM (inactive) | > 100 µM (inactive) | > 100 µM (inactive) | > 100 µM (inactive) | > 100 µM (inactive) | – | > 100 µM (inactive) |
| OCC1C2C=CC(O2)[C@H]1CO (stereo partly specified) | > 100 µM (inactive) | > 100 µM | > 100 µM (inactive) | > 100 µM (inactive) | > 100 µM (inactive) | > 100 µM (inactive) | > 100 µM (inactive) | – | > 100 µM (inactive) | > 100 µM (inactive) | > 100 µM (inactive) | > 100 µM (inactive) | > 100 µM (inactive) | > 100 µM (inactive) | 79.6 µM (inactive) | > 100 µM (inactive) | > 100 µM (inactive) | > 100 µM (inactive) | > 100 µM (inactive) | > 100 µM (inactive) |
